Values quoted from earlier work in patent US10059967B2, “Microorganisms and processes for producing terephthalic acid and its salts” (Genomatica, Inc., priority 2012, dated 2018).

solubility in aqueous solution (in words): Only slightly soluble
SMILES: Cc1ccc(C(=O)O)cc1 [p-toluate, 4-methylbenzoate]
